# Key:
# Assay in all cases: relative viability (nuclei count vs DMSO), 5 days (fraction); higher = more cells survive
# Pemetrexed + Phenformin = compound: Nc1nc2[nH]cc(CCc3ccc(C(=O)N[C@@H](CCC(=O)O)C(=O)O)cc3)c2c(=O)[nH]1 [Pemetrexed] + N=C(N)NC(=N)NCCc1ccccc1 [Phenformin] (partner 250 µM)
# In short: (§1)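 A single step with final 0.05% Triton X-100, 1% formaldehyde and 1 ug/ml Hoechst fixed the cells and stained nuclei 5 days after treatment. Lung cancer cell lines in 1536-well plates had been treated by pin tool the day after seeding with one drug alone or a fixed anchor-drug dose plus five library-drug doses (not always all listed) in √10 steps, and nuclei were counted on 4× images. Relative viability is the ratio of nuclei in treated wells to nuclei in vehicle wells, taken as the median of duplicate plates.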
# Pemetrexed + Pictilisib = compound: Nc1nc2[nH]cc(CCc3ccc(C(=O)N[C@@H](CCC(=O)O)C(=O)O)cc3)c2c(=O)[nH]1 [Pemetrexed] + CS(=O)(=O)N1CCN(Cc2cc3nc(-c4cccc5[nH]ncc45)nc(N4CCOCC4)c3s2)CC1 [Pictilisib] (partner 1 µM)
# In short: as §1
# Idelalisib + Lapatinib = compound: CC[C@H](Nc1ncnc2[nH]cnc12)c1nc2cccc(F)c2c(=O)n1-c1ccccc1 [Idelalisib] + CS(=O)(=O)CCNCc1ccc(-c2ccc3ncnc(Nc4ccc(OCc5cccc(F)c5)c(Cl)c4)c3c2)o1 [Lapatinib] (partner 2 µM)
# In short: as §1
# Pemetrexed + Bortezomib = compound: Nc1nc2[nH]cc(CCc3ccc(C(=O)N[C@@H](CCC(=O)O)C(=O)O)cc3)c2c(=O)[nH]1 [Pemetrexed] + CC(C)C[C@H](NC(=O)[C@H](Cc1ccccc1)NC(=O)c1cnccn1)B(O)O [Bortezomib] (partner 0.002 µM)
# In short: as §1
Cell Line,relative viability (Pemetrexed + Phenformin; first compound 0.002 µM),relative viability (Pemetrexed + Phenformin; first compound 0.006325 µM),relative viability (Pemetrexed + Phenformin; first compound 0.02 µM),relative viability (Pemetrexed + Phenformin; first compound 0.06325 µM),relative viability (Pemetrexed + Phenformin; first compound 0.2 µM),relative viability (Pemetrexed + Pictilisib; first compound 0.002 µM),relative viability (Pemetrexed + Pictilisib; first compound 0.006325 µM),relative viability (Pemetrexed + Pictilisib; first compound 0.02 µM),relative viability (Pemetrexed + Pictilisib; first compound 0.06325 µM),relative viability (Pemetrexed + Pictilisib; first compound 0.2 µM),relative viability (Idelalisib + Lapatinib; first compound 0.04 µM),relative viability (Idelalisib + Lapatinib; first compound 0.1265 µM),relative viability (Idelalisib + Lapatinib; first compound 0.4 µM),relative viability (Idelalisib + Lapatinib; first compound 1.265 µM),relative viability (Idelalisib + Lapatinib; first compound 4 µM),relative viability (Pemetrexed + Bortezomib; first compound 0.002 µM),relative viability (Pemetrexed + Bortezomib; first compound 0.006325 µM),relative viability (Pemetrexed + Bortezomib; first compound 0.02 µM),relative viability (Pemetrexed + Bortezomib; first compound 0.06325 µM),relative viability (Pemetrexed + Bortezomib; first compound 0.2 µM)
201T,0.428,0.494,0.479,0.426,0.403,0.625,0.698,0.715,0.632,0.5,0.978,1.05,1.04,1.13,1.02,1.05,1.11,1.12,1.09,1.03
A549,0.161,0.155,0.169,0.161,0.14,0.42,0.519,0.602,0.483,0.489,0.96,0.996,0.924,0.923,0.832,,,,,
A-427,0.298,0.42,0.377,0.308,0.355,0.646,0.759,0.804,0.746,0.642,1.11,1.06,1.04,1.07,1.04,0.929,1.06,1.04,0.96,1.06
ABC-1,0.283,0.24,0.26,0.283,0.249,0.947,0.662,0.954,0.826,0.706,1.11,1.19,1.13,1.01,1.08,0.244,0.297,0.322,0.214,0.292
BEN,0.288,0.283,0.255,0.272,0.275,0.53,0.564,0.591,0.539,0.525,0.88,0.635,0.613,0.73,0.602,0.838,0.847,1.01,0.855,0.688
CAL-12T,0.502,0.477,0.612,0.58,0.608,0.426,0.484,0.451,0.416,0.389,0.672,0.7,0.616,0.471,0.501,0.812,0.935,1.16,0.9,0.939
COR-L23,0.394,0.431,0.47,0.26,0.173,0.58,0.688,0.825,0.24,0.147,1.09,1.14,0.711,1.29,0.926,0.795,0.939,0.995,0.376,0.179
COR-L 105,0.405,0.45,0.49,0.524,0.449,0.406,0.463,0.423,0.386,0.416,0.385,0.353,0.294,0.374,0.362,0.842,0.704,1.05,0.924,0.783
Calu-6,,,,,,0.876,0.911,0.978,0.903,0.785,1.04,1.06,1.05,1.02,1.06,0.963,0.937,1.01,0.971,0.942
ChaGo-K-1,0.497,0.495,0.507,0.332,0.217,0.609,0.793,0.597,0.224,0.28,,,,,,1.09,1.11,1.05,0.332,0.307
EBC-1,,,,,,0.341,0.346,0.395,0.337,0.339,0.225,0.198,0.233,0.239,0.222,0.57,0.5,0.642,0.54,0.542
EKVX,0.246,0.284,0.26,0.254,0.206,0.408,0.441,0.418,0.432,0.269,0.21,0.234,0.184,0.201,0.186,0.939,0.946,0.971,0.979,0.553
EMC-BAC-2,0.481,0.523,0.615,0.58,0.423,0.534,0.465,0.564,0.579,0.421,0.91,0.953,0.827,0.905,0.833,0.993,0.922,1.11,1.06,1.04
EPLC-272H,0.242,0.315,0.333,0.292,0.267,0.375,0.348,0.409,0.326,0.325,0.951,1.04,0.705,0.901,0.84,0.682,0.888,1.16,0.848,0.926
H3255,0.349,0.355,0.414,0.418,0.414,0.385,0.43,0.504,0.42,0.431,0.297,0.283,0.258,0.233,0.203,,0.834,0.933,0.692,0.572
HARA,0.402,0.447,0.508,0.297,0.137,0.465,0.374,0.436,0.235,0.204,0.891,0.982,0.651,0.844,0.656,0.567,1.12,1.17,0.846,0.453
HCC-15,0.439,0.455,0.531,0.372,0.21,0.629,0.777,0.766,0.544,0.238,0.828,0.847,0.818,0.983,0.894,0.916,0.995,1.12,1.02,0.562
HCC-44,0.129,0.23,0.187,0.224,0.207,1.52,0.61,0.654,0.537,0.395,1.02,1.01,1,1.07,1.14,0.859,0.934,1.03,0.888,0.681
HCC-78,0.446,0.694,0.599,0.361,0.255,,0.179,0.197,0.14,0.157,0.709,0.81,0.577,0.916,0.754,0.369,0.436,0.46,0.294,0.322
HCC-366,0.515,0.616,0.672,0.612,0.571,0.193,0.133,0.151,0.127,0.14,1.01,1.02,0.999,1.03,0.987,0.97,1.04,1.13,1.05,0.661

Cell Line,relative viability (Pemetrexed + Phenformin; first compound 0.002 µM),relative viability (Pemetrexed + Phenformin; first compound 0.006325 µM),relative viability (Pemetrexed + Phenformin; first compound 0.02 µM),relative viability (Pemetrexed + Phenformin; first compound 0.06325 µM),relative viability (Pemetrexed + Phenformin; first compound 0.2 µM),relative viability (Pemetrexed + Pictilisib; first compound 0.002 µM),relative viability (Pemetrexed + Pictilisib; first compound 0.006325 µM),relative viability (Pemetrexed + Pictilisib; first compound 0.02 µM),relative viability (Pemetrexed + Pictilisib; first compound 0.06325 µM),relative viability (Pemetrexed + Pictilisib; first compound 0.2 µM),relative viability (Idelalisib + Lapatinib; first compound 0.04 µM),relative viability (Idelalisib + Lapatinib; first compound 0.1265 µM),relative viability (Idelalisib + Lapatinib; first compound 0.4 µM),relative viability (Idelalisib + Lapatinib; first compound 1.265 µM),relative viability (Idelalisib + Lapatinib; first compound 4 µM),relative viability (Pemetrexed + Bortezomib; first compound 0.002 µM),relative viability (Pemetrexed + Bortezomib; first compound 0.006325 µM),relative viability (Pemetrexed + Bortezomib; first compound 0.02 µM),relative viability (Pemetrexed + Bortezomib; first compound 0.06325 µM),relative viability (Pemetrexed + Bortezomib; first compound 0.2 µM)
HCC-827,0.366,0.417,0.436,0.4,0.37,0.74,0.973,0.929,0.95,0.664,0.225,0.191,0.176,0.178,0.157,0.961,1.02,1.01,1.01,0.748
HOP-62,0.567,0.675,0.659,0.716,0.611,0.351,0.666,0.817,0.655,0.655,1,0.912,,1.47,1.06,0.741,0.862,0.617,0.722,0.668
IA-LM,,,,,,0.115,0.323,,0.343,0.339,0.641,0.733,0.958,1.24,0.816,0.81,0.82,0.943,0.695,0.641
LC-2-ad,0.518,0.567,0.492,0.335,0.374,0.402,0.306,0.428,0.211,0.123,1.04,0.963,0.949,1.05,0.868,0.981,1.01,1.02,0.215,0.148
LCLC-103H,0.316,0.333,0.364,0.351,0.3,0.639,0.588,0.714,0.61,0.669,,,,,,1.08,1.01,1,1.23,1.02
LK-2,0.51,0.475,0.883,0.376,0.267,,0.472,0.654,0.466,0.41,1.03,0.98,0.63,0.978,0.965,,,,,
NCI-H358,0.334,0.359,0.31,0.166,0.132,0.338,0.264,0.29,0.243,0.21,0.468,0.469,0.37,0.488,0.498,,,,,
NCI-H441,0.594,0.793,0.515,0.555,0.393,0.46,0.463,0.595,0.322,0.268,,,,,,0.572,0.602,0.914,0.825,0.389
NCI-H522,0.739,0.593,0.77,0.692,0.583,,,,,,,,,,,,,,,
NCI-H1299,,,,,,0.86,0.724,1.06,0.762,0.536,0.927,0.977,0.943,1.09,1.02,1.02,1.01,1.03,1.03,0.987
NCI-H1395,0.4,0.472,0.521,0.411,0.447,0.824,0.58,0.679,0.54,0.574,1.01,0.948,0.993,0.933,0.758,,,,,
NCI-H1623,0.575,0.588,0.564,0.627,0.598,,,,,,,,,,,,,,,
NCI-H1703,,,,,,,0.248,0.29,0.287,0.264,1.53,1.03,0.961,1.29,0.618,0.277,0.224,0.605,0.248,0.271
NCI-H1793,0.436,0.361,0.42,0.349,0.405,0.303,0.299,0.341,0.247,0.311,0.664,0.635,0.406,0.583,0.651,,,,,
NCI-H1944,,0.229,0.207,0.189,0.189,0.307,0.345,0.337,0.345,0.327,0.969,0.857,0.637,0.826,0.668,,,,,
NCI-H2170,0.449,0.443,0.424,0.42,0.405,0.303,0.307,0.242,0.305,0.276,0.285,0.267,0.242,0.29,0.29,,,,,
NCI-H2342,0.501,0.6,0.526,0.54,0.618,,,,,,,,,,,,,,,
SK-MES-1,0.647,0.638,0.705,0.642,0.614,0.34,0.327,0.349,0.322,0.401,0.467,0.445,0.432,0.443,0.396,,,,,
SW 900,0.759,0.578,0.763,0.548,0.477,,,,,,,,,,,,,,,

# — the supplement of paper PMC10307832
